For orientation: Ki means the equilibrium dissociation constant of an inhibitor or competing ligand from its target.

Experiment [1] has as its target dopamine D2 receptor (Chlorocebus aethiops, UniProt P52702). Description: D2 receptor binding assay (displacement of 3H-YM 09151-2). Details: species or system African Green monkey. The following applies: 0.5 nM 3H-YM 09151-2; COS cells with recombinant D2 receptors; 0.05M Tris HCl, 100 mM NaCl; nonspecific: 1 mM spiperone.
Experiment [2] addresses dopamine D3 receptor (Chlorocebus aethiops, UniProt P52703). Put plainly: D3 receptor binding assay (displacement of 3H-YM 09151-2). Details: species or system African Green monkey. The following applies: 0.5 nM 3H-YM 09151-2; COS cells with recombinant D3 receptors; 0.05M Tris HCl, 100 mM NaCl; nonspecific: 1 mM spiperone.

Counter-ions that a name gives are not always drawn.

dopamine D2 receptor, sequence (P52702 whole entry): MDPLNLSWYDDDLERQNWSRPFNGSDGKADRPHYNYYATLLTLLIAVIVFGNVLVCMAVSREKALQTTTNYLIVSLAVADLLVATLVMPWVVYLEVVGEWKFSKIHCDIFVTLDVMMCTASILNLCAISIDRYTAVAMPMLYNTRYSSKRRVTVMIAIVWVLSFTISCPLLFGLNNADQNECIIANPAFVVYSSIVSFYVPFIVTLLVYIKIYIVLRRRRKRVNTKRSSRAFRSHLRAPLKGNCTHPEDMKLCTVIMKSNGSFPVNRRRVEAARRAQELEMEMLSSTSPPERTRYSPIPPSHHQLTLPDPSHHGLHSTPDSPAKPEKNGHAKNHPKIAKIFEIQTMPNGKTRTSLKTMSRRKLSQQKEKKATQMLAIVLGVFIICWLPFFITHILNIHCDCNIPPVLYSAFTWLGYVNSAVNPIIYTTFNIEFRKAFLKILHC
dopamine D3 receptor, sequence (P52703 whole entry): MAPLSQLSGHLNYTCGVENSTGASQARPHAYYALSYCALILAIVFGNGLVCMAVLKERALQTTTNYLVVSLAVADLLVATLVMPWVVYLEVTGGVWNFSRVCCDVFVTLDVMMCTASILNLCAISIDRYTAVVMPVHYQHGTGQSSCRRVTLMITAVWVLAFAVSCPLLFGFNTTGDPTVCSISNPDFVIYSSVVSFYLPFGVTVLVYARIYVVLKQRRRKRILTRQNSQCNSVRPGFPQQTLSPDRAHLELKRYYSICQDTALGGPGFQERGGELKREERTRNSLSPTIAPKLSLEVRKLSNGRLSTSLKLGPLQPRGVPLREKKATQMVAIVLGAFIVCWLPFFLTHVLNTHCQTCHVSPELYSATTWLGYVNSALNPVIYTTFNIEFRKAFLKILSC

For `O=C(NCCCCN1CCN(c2cccc(Cl)c2Cl)CC1)c1ccc2cc3ccccc3cc2c1` [Compound 1, N-{4-[4-(2,3-Dichlorophenyl)-1-piperazinyl]butyl}-2-anthracenecarboxamide], the results for the inhibitory constant (Ki) in experiment [1] and in experiment [2] were 1090 nM and 7 nM, respectively.

As for `O=C(NCCCCN1CCN(c2cccc3ccccc23)CC1)c1ccc2cc3ccccc3cc2c1` [Compound 2, N-{4-[4-(1-Naphthyl)-1-piperazinyl]butyl}-2-anthracenecarboxamide hydrochloride], the Ki is 550 nM in experiment [1] and 1.2 nM in experiment [2].

These data come from patent US5883257A, “N-piperidinyl- and N-tetrahydropyridinyl-2-anthracenecarboxamides: dopamine receptor subtype specific ligands” (Neurogen Corporation, priority 1997, dated 1999).
